Data reported in patent US9115159B2, “Phosphate compounds, a process for their preparation and pharmaceutical compositions containing them” (LES LABORATOIRES SERVIER, priority 2013, dated 2015).
Where two headings read alike, the source gives them in different places.

Legend:
[1] = Pharmacokinetic profile in the Wistar rat, lipid versus aqueous formulation; format: in vivo, male Wistar rats; details: Drug from Example 1 administered 100 mg/kg p.o., plasma
Protocol: The pharmacokinetic profile of N-(4-hydroxyphenyl)-3-{6-[((3S)-3-(4-morpholinyl-methyl)-3,4-dihydro-2(1H)-isoquinolinyl)carbonyl]-1,3-benzodioxol-5-yl}-N-phenyl-5,6,7,8-tetrahydro-1-indolizine carboxamide (also referred to as the drug from Example 1) is also evaluated in a lipid and aqueous formulation in the Wistar rat.
The drug from Example 1 is prepared in an aqueous suspension in hydroxyethylcellulose 1% (w/v) in water and compared to a lipid formulation composed of a mixture of anhydrous ethanol/polyethylene glycol 400/Phosal 50PG ([…], v/v/v). The two formulations are administered by the oral route to male Wistar rats (3 rats per formulation) at a dose of 100 mg/kg p.o. (gavage, 10 mL/kg).
Blood samples are taken at the following points in time from each animal (3 animals/point in time): 0.25 hr, 0.5 hr, 0.75 hr, 1 hr, 2 hrs, 4 hrs, 8 hrs and 24 hrs after oral administration.
The plasma concentrations of the tested compound are determined after extraction followed by liquid chromatography coupled with mass spectrometric detection. The limit of quantification is 0.1 ng/mL.

[2] = Solubility in aqueous medium buffered to physiological pH (phosphate 0.33M, pH 7.4); format: physicochemical; details: phosphate 0.33M, pH = 7.4
Protocol: The solubilities of the compounds were also measured in a medium buffered to physiological pH (cf. Table 3).

[3] = Pharmacokinetic profile / in vivo conversion after oral administration to SCID mice (plasma, LC-MS/MS); parameters: species or system female SCID mice; details: female, mouse, po; for Cmax: read-out: Cmax, compound measured: Drug from Example 1; for AUC(0-t): read-out: AUCt, compound measured: Drug from Example 1; for Tmax: read-out: Tmax, compound measured: Drug from Example 1
Procedure, shortened: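 Female SCID mice were gavaged with phosphate prodrug in EtOH/PEG300/water (10/40/50) at 3 or 25 mg/kg, or in aqueous media (1 mM Na2CO3, water, or 1M Na2CO3) at 3–100 mg/kg. Plasma prodrug and hydroxylated drug were measured by TFC-LC-MS/MS over 0.25–24 h. Non-compartmental analysis used mean concentrations.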

[4] = aqueous formulation (suspension in hydroxyethylcellulose 1% in water)
[5] = lipid formulation (anhydrous ethanol/polyethylene glycol 400/Phosal 50PG)
[6] = Drug from Example 1 administered 3 mg/kg p.o., lipid formulation
[7] = Drug from Example 1 administered 25 mg/kg p.o., lipid formulation
[8] = Drug from Example 1 administered 30 mg/kg p.o., lipid formulation
[9] = Drug from Example 1 administered 100 mg/kg p.o., lipid formulation

## O=C(c1cc(-c2cc3c(cc2C(=O)N2Cc4ccccc4C[C@H]2CN2CCOCC2)OCO3)n2c1CCCC2)N(c1ccccc1)c1ccc(O)cc1 [Drug from Example 1, N-(4-hydroxyphenyl)-3-{6-[((3S)-3-(4-morpholinylmethyl)-3,4-dihydro-2(1H)-isoquinolinyl)carbonyl]-1,3-benzodioxol-5-yl}-N-phenyl-5,6,7,8-tetrahydro-1-indolizine carboxamide]
[1]; [4]
  AUCt, compound measured: Drug from Example 1: AUCt (ng · h/mL) = 3480
  Cmax, compound measured: Drug from Example 1: Cmax (ng/mL) = 816
[1]; [5]
  AUCt, compound measured: Drug from Example 1: AUCt (ng · h/mL) = 42900
  Cmax, compound measured: Drug from Example 1: Cmax (ng/mL) = 5070
[2]; 10 μM
  Solubility at 10 μM: Insoluble
[2]; 20 μM
  Solubility at 20 μM: Insoluble
[2]; 50 μM
  Solubility at 50 μM: Insoluble
[2]; 100 μM
  Solubility at 100 μM: Insoluble
[3]; Drug from Example 1 administered 3 mg/kg p.o., lipid formulation (ethanol/PEG 300/water 10/40/50)
  Cmax: 295 ng/mL
[3]; [6]
  AUC(0-t): 225 ng·h/mL
  Tmax: 15 min
[3]; [7]
  AUC(0-t): 20400 ng·h/mL
  Cmax: 5070 ng/mL
  Tmax: 120 min
[3]; [8]
  AUC(0-t): 24200 ng·h/mL
  Cmax: 8580 ng/mL
  Tmax: 60 min
[3]; [9]
  AUC(0-t): 148000 ng·h/mL
  Cmax: 25900 ng/mL
  Tmax: 30 min
